Assay [1] addresses T1, human trkA receptor (Homo sapiens, UniProt P04629).
T1 construct: expressed in transfected cells
Nature of the assay: trkA receptor inhibitory activity using a cell expressing a nerve growth factor receptor (NGF-dependent increase of calcium concentration in cells, FLIPR). It is filed as cell-based. The conditions noted are these: HEK293 cells stably expressing human trkA receptor; NGF-stimulated change in Ca concentration in cells. As to the method: Experiment to Measure trkA Receptor Inhibitory Activity Using a Cell Expressing a Nerve Growth Factor Receptor (trkA Receptor)
The trkA receptor inhibitory activity was measured by using the increase in a ligand-dependent calcium concentration in cells as an index. HEK293 cells (American Type Culture Collection) that stably expressed a human trkA receptor were dispensed onto a 96-well poly-D-lysine-coated plate (Product Name: Biocoat, PDL96W black/clear, by Nippon Becton Dickinson) to a 2×10^4 cells/well on the day before the experiment, and incubated overnight at 37° C. under 5% carbon dioxide (CO2) in a culture medium containing 10% fetal bovine serum (FBS) (Product Name: DMEM, Invitrogen Corporation). The culture medium was replaced by a loading buffer (a washing solution containing a 1.5 μM fluorescent-labelled indicator (Product Name: Fluo4-AM, Tong Ren Tang Technologies Co. Ltd.): a Hank's balanced salt solution (HBSS), 20 mM 2-[4-(2-hydroxyethyl)-1-piperazinyl]ethanesulfonic acid (HEPES)-sodium hydroxide (NaOH), 2.5 mM Probenecid, and 0.1% bovine serum albumin (BSA)), and left to stand at room temperature for 3 hours, and the cells were washed using a plate washer (Product Name: ELx405, BIO-TEK instrument Corporation) in which a washing solution had been set up. The compound that had been preliminarily dissolved and diluted in a washing solution was added thereto, and set up in a system for measuring a calcium (Ca) concentration in a cell (Product Name: FLIPR, Molecular Devices Corporation). After 5 minutes, a nerve growth factor (NGF, mouse derived 2.5S, Alomone) corresponding to 80% stimulation of a maximum response was added (to a final concentration of about 100 to 150 ng/ml) to measure the change in Ca concentrations in cells. The difference between a maximum value and a minimum value in the change of Ca concentrations in cells was determined, and kept as measurement data. With a response upon addition of NGF being set at 0%, and a response upon addition of a buffer being set at 100%, the concentration causing 50% inhibition was determined as an IC50 value. In the table, Ex represents Example Compound No. as below (the same applies hereinafter). From the results of this test, it was confirmed that the representative compounds of the present invention as below have a trkA receptor inhibitory action.

Assay [2] has as its system enhanced vascular permeability caused by Rat NGF. As to the kind of experiment: Inhibitory activity on enhanced vascular permeability caused by Rat NGF (Evans blue). The class given is in vivo. The conditions noted are these: Wistar female rat, 10 mg/kg oral, NGF intracutaneously 60 minutes after administration; for inhibition in vivo at 10 mg/kg: 1 h, read-out: Inhibitory rate. The procedure: Evaluation of the Inhibitory Activity of the Compound on Enhanced Vascular Permeability Caused by Rat NGF
The in vivo NGF inhibitory activity of the compound was examined. A Wistar female rat (Japan SLC) was forced to be orally administered with the compound (0.5% methylcellulose solution) 10 mg/3 ml/kg or a solvent (0.5% methylcellulose solution) 3 ml/kg. Under ether anesthesia performed at 60 minutes after administration, physiological saline or 1 μg/ml NGF (NGF, mouse derived 2.5 S, Alomone) was intracutaneously administered to the back at 50 μl/site, and then immediately a 1% Evans blue solution (dissolved in physiological saline) was administered through the caudal vein at 3 ml/kg. At a time point of 10 minutes after administration, the skin on the back was taken, and shaken in formamide for 16 hours. After shaking, an absorbance of Evans blue extracted in formamide was measured by an absorbance meter (wavelength: 620 nm), and the concentration was determined by a calibration curve method. A value obtained by subtracting the concentration of Evans blue at a site administered with physiological saline from the concentration of Evans blue at a site administered with NGF was determined as an NGF-dependent action, and an inhibitory rate of the compound group was determined with a group administered with a solvent being set at 100%. In this test, it was confirmed that the representative compounds as below of the present invention have an excellent inhibitory action on enhanced vascular permeability caused by Rat NGF.

The subject of assay [3] is rat having urinary frequency caused by cyclophosphamide (CPA). Nature of the assay: Action on a rat having urinary frequency caused by cyclophosphamide (CPA). The conditions noted are these: CPA-treated Wistar female rat, value before administration = 100%. The class given is in vivo. The procedure: Action of the Compound on a Rat Having Urinary Frequency Caused by Cyclophosphamide (CPA)
CPA (150 mg/5 ml/kg) was intraperitoneally administered to a Wistar female rat (Charles River Laboratories), and after 2 days, the experiment was carried out. It was forced to be orally administered with distilled water (30 ml/kg), and then confined in a metabolic cage, and urine weight and urination frequency were continuously measured for 1 hour. 3 or 10 mg/5 ml/kg of the compound (0.5% methylcellulose solution), or 5 ml/kg of a solvent (0.5% methylcellulose solution) was orally administered, and after 5 to 30 minutes, urination functions were measured after water-loading in the same manner as described above. A total urine weight was divided by the total urination frequency to determine an effective bladder capacity. With the value before administration of the compound being set at 100%, a rate of change in the effective bladder capacity caused by administration of the compound was determined.
In this test, at 2 days after CPA treatment, the effective bladder capacity had decreased (about 0.5 ml), indicating urinary frequency.

[4] abbreviates: oral dose 10 mg/kg, evaluation period 5-65 minutes after administration.
Where [5] appears, read: oral dose 10 mg/kg, evaluation period 15-75 minutes after administration.

Each structure is given as a SMILES string. Where a name gives a salt, the structure may show the parent alone.

T1 sequence (P04629 33-796): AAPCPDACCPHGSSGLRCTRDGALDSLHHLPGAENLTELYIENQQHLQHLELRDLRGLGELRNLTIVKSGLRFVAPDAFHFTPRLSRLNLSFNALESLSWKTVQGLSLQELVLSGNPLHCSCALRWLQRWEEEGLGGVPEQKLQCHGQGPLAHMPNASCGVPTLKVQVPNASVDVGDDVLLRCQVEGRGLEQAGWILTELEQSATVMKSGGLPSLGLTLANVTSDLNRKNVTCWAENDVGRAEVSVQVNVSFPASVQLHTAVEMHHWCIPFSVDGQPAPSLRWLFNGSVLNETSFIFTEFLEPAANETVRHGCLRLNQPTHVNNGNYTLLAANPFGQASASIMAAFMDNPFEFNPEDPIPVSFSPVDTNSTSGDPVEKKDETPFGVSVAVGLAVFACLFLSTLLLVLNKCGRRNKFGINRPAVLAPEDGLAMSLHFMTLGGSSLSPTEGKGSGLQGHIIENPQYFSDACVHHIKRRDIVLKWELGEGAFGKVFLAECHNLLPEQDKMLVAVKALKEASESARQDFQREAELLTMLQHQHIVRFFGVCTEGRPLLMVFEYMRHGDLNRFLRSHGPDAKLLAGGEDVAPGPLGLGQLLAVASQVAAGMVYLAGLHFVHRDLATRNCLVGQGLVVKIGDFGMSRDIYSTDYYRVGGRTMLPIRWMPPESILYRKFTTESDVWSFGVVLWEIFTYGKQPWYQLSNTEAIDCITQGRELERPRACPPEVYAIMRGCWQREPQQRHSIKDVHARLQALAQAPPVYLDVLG

The term IC50 denotes the concentration that gives 50% inhibition. For the compound `O=C(Nc1ccc(CO)cc1Cl)c1csc(N2CCC(Oc3ncccn3)CC2)n1` [Ex 3], the IC50 in assay [1] came to 5.4 nM.

Turning to `O=C(Nc1ccccc1C(=O)Nc1cccnc1)c1coc(N2CCOCC2)n1` [Ex 11], the inhibition in vivo at 10 mg/kg in assay [2] is 69%. Also, the half-maximal inhibitory concentration (IC50) in assay [1] is 6.9 nM.

Regarding `CCOC1CCN(c2nc(C(=O)Nc3ccccc3C(=O)NC3CCOCC3)cs2)CC1` [Ex 28], in assay [2], the inhibition in vivo at 10 mg/kg stood at 92%. In addition, the 50% inhibitory concentration (IC50) in assay [1] came out at 27 nM.

Regarding `CN(CC1CCOCC1)c1nc(C(=O)Nc2ccccc2C(=O)Nc2cccnc2)cs1` [Ex 30], in assay [2], the inhibition in vivo at 10 mg/kg stood at 90%. Besides, the IC50 in assay [1] was 0.57 nM.

Regarding `COCCN(C)c1nc(C(=O)Nc2ccccc2C(=O)Nc2cccnc2)cs1` [Example 103], the inhibition in vivo at 10 mg/kg in assay [2] worked out at 98%. In assay [3] (oral dose 3 mg/kg, evaluation period 5-65 minutes after administration), the “Rate in cange of effective bladder capacity” value (“Rate in cange” below) is given as 145%. Also, the IC50 in assay [1] turned out to be 2.9 nM.

For `CO[C@H]1CCN(c2nc(C(=O)Nc3ccccc3C(=O)Nc3cccnc3)co2)C1` [Example 206], the “Rate in cange” value in assay [3] (setting [4]) amounted to 159%. Further, the IC50 in assay [1] amounted to 6.8 nM.

For `Nc1cc(-c2nc(C(=O)Nc3ccccc3C(=O)Nc3cccnc3)co2)ccn1` [Example 220], the IC50 in assay [1] came out at 4.2 nM.

Consider `COCCN(C)c1nc(C(=O)Nc2ccccc2C(=O)NC2CCOCC2)co1` [Example 361], for which, in assay [2], the inhibition in vivo at 10 mg/kg is 78%. Further, the “Rate in cange” value in assay [3] (setting [4]) is listed as 144%. The half-maximal inhibitory concentration (IC50) in assay [1] was determined as 35 nM.

For the compound `COCCNC(=O)c1cc(CN2CCOCC2)ccc1NC(=O)c1csc(N2CCC(Oc3ncccn3)CC2)n1` [Example 564], in assay [2], the Inhibitory rate is on record as 90%. Further, the “Rate in cange” value in assay [3] (setting [5]) is 146%. Moreover, the IC50 in assay [1] was found to be 3.1 nM.

Regarding `O=C(Nc1ccncc1C(=O)NC1CCOCC1)c1csc(N2CCC(Oc3ncccn3)CC2)n1` [Example 602], the “Rate in cange” value in assay [3] (setting [5]) was determined as 152%. Besides, the 50% inhibitory concentration (IC50) in assay [1] amounted to 1.1 nM.

Regarding `O=C(Nc1ccccc1S(=O)(=O)C(F)F)c1csc(N2CCC(Oc3ncccn3)CC2)n1` [Example 611], the half-maximal inhibitory concentration (IC50) in assay [1] came to 2.1 nM.

Turning to `CC(=O)c1cc(C2(C#N)CC2)ccc1NC(=O)c1csc(N2CCC(Oc3ncccn3)CC2)n1` [Example 628], in assay [1], the IC50 amounted to 1.7 nM.

In the case of `CN(CC1CCOCC1)c1nc(C(=O)Nc2ccc(CN3CCOCC3)cc2C(=O)NC2CCOCC2)cs1` [Example 930], in assay [2], the Inhibitory rate is 86%. Also, in assay [3] (setting [5]), the “Rate in cange” value is reported as 170%. For the same compound, the IC50 in assay [1] is 6.8 nM.

Take `COCCNC(=O)c1cc(CN2CCO[C@@H](C)C2)ccc1NC(=O)c1csc(N2CC[C@H](OC)C2)n1` [Example 1181, N-(2-[(2-methoxyethyl)carbamoyl]-4-{[(2S)-2-methylmorpholin-4-yl]methyl}phenyl)-2-[(3S)-3-methoxypyrrolidin-1-yl]-1,3-thiazole-4-carboxamide fumarate]: the inhibition in vivo at 10 mg/kg in assay [2] was found to be 81%. For the same compound, in assay [1], the IC50 was 12 nM.

As for `COCCNC(=O)c1cc(CN2CCOCC2(C)C)ccc1NC(=O)c1csc(N2CC[C@H](OC)C2)n1` [Example 1343], in assay [2], the inhibition in vivo at 10 mg/kg is 87%. Moreover, the IC50 in assay [1] turned out to be 9.9 nM.

As to `COCCNC(=O)c1cc(CN2CCOCC2)ccc1NC(=O)c1csc(N2CC(OC)C2)n1` [Example 1435], in assay [2], the inhibition in vivo at 10 mg/kg was 71%. Further, in assay [1], the IC50 was 36 nM.

Consider `COC[C@@H](C)NC(=O)c1cc(CN2CCOCC2)ccc1NC(=O)c1csc(N2CC(OC)C2)n1` [Example 1439], for which the inhibition in vivo at 10 mg/kg in assay [2] turned out to be 76%. The half-maximal inhibitory concentration (IC50) in assay [1] was 25 nM.

On to `CCOCc1ccc(NC(=O)c2csc(N3CC[C@H](OC)C3)n2)c(C(=O)NCCOC)c1` [Example 1449], for which the inhibition in vivo at 10 mg/kg in assay [2] stood at 76%. Further, in assay [1], the half-inhibitory concentration (IC50) stood at 8.8 nM.

Consider `COCCNC(=O)c1cc(CN2CCOCC2)ccc1NC(=O)c1csc(N(C)CCOC)n1` [Example 1469], for which, in assay [2], the inhibition in vivo at 10 mg/kg worked out at 90%. For the same compound, the IC50 in assay [1] came out at 9.8 nM.

With `COCCNC(=O)c1cc(CN2CCOCC2)ccc1NC(=O)c1csc(N2CC[C@H](F)C2)n1` [Example 1470], the inhibition in vivo at 10 mg/kg in assay [2] was found to be 76%. Further, in assay [1], the IC50 was 18 nM.

Values taken from patent US8304547B2, “Azolecarboxamide compound or salt thereof” (Astellas Pharma Inc., priority 2007, dated 2012).
